# ChEMBL document CHEMBL6078663, “Cyclopeptide Avellanins D-O with Antimalarial Activity from the Mariana Trench Anemone-Derived Hamigera ingelheimensis MSC5” (J Nat Prod, 2024)
# Test system: Plasmodium falciparum
# Test: Antimalarial activity against synchronous ring-stage Plasmodium falciparum 3D7 infected in erythrocytes incubated for 48 hrs by fluorescence based method
# Type: functional, organism-based
# Settings: 3D7, Erythrocyte
row,SMILES,IC50 [µM]
1,C[C@H]1NC(=O)[C@@H](Cc2ccccc2)N(C)C(=O)[C@@H]2CCCN2C(=O)c2ccccc2NC(=O)[C@H](Cc2ccc(O)cc2)NC1=O,10
2,C[C@H]1NC(=O)[C@@H](Cc2ccccc2)N(C)C(=O)[C@@H]2CCCN2C(=O)c2ccccc2NC(=O)[C@H](CCO)NC1=O,> 50
3,C[C@H]1NC(=O)[C@@H](Cc2ccccc2)N(C)C(=O)[C@@H]2CCCN2C(=O)c2ccccc2NC(=O)[C@H](Cc2ccccc2)NC1=O,9.4
4,CN1C(=O)[C@@H]2CCCN2C(=O)c2ccccc2NC(=O)[C@H](Cc2ccccc2)NC(=O)CNC(=O)[C@H]1Cc1ccccc1,3
5,CN1C(=O)[C@@H]2CCCN2C(=O)c2ccccc2NC(=O)[C@H](Cc2ccccc2)NC(=O)[C@@H](CO)NC(=O)[C@H]1Cc1ccccc1,16
6,C[C@H]1NC(=O)[C@@H](Cc2ccccc2)N(C)C(=O)[C@@H]2CCCN2C(=O)c2ccccc2NC(=O)[C@H](Cc2ccc(O)c(Cl)c2)NC1=O,0.19
